Literature values as cited in patent US10828268B2 (priority 2013, dated 2020).

Settings: human, taken orally

- oral bioavailability: poorly bioavailable
SMILES: COc1cc(/C=C/C(=O)CC(=O)/C=C/c2ccc(O)c(OC)c2)ccc1O [curcumin]
